The values below come from ChEMBL document CHEMBL5370556, “Optimization, and biological evaluation of 3-O-β-chacotriosyl betulinic acid amide derivatives as novel small-molecule Omicron” (Eur J Med Chem, 2023).

Calls of active or inactive are those of the source. No cut-off for these calls is given here.

Data set [1] concerns SARS-CoV-2. The data set is described as follows: Antiviral activity against luciferase-expressing pseudovirus encoding SARS-CoV-2 Omicron expressing S protein infected in human 293T/ACE2 cells assessed as reduction of viral growth measured after 48 hrs by luciferase assay. It is filed as functional, organism-based. As to conditions: Severe acute respiratory syndrome coronavirus 2, 293T/ACE2, 48 h.

Data set [2] in a line: Cytotoxicity against human 293T/ACE2 cells assessed as reduction in cell growth measured after 48 hrs by MTT assay. It is filed as functional.
A short description of data set [3]: Selectivity index, ratio of CC50 for human 293T/ACE2 cells to EC50 for SARS-CoV-2 Omicron. It is filed as toxicity. As to conditions: read-out: Ratio CC50/EC50.
In data set [4] the test system is SARS-CoV-2. Briefly: Antiviral activity against luciferase-expressing pseudovirus encoding SARS-CoV-2 Omicron expressing S protein infected in human 293T/ACE2 cells assessed as reduction of viral growth at 0.078 to 10 uM measured after 48 hrs by luciferase assay. Type of data set: functional, organism-based. As to conditions: Severe acute respiratory syndrome coronavirus 2, dose 0.078-10 µM.

In data set [5] the test system is SARS-CoV-2. Briefly: Antiviral activity against vesicular stomatitis virus glycoprotein expressing pseudovirus encoding SARS-CoV-2 infected in human 293T/ACE2 cells assessed as reduction of viral growth at 0.078 to 10 uM measured after 48 hrs by luciferase assay. As to conditions: Severe acute respiratory syndrome coronavirus 2, dose 0.078-10 µM. It is filed as functional, organism-based.

The next data set concerns the target Spike glycoprotein (Severe acute respiratory syndrome coronavirus 2, UniProt P0DTC2). Briefly: Binding affinity to C-terminal 6His-tagged SARS-COV-2 recombinant S protein (Val16 to Arg685 residues) expressed in mammalian expression system assessed as dissociation constant by SPR analysis.
Data set [6] concerns SARS-CoV-2. The data set is described as follows: Antiviral activity against luciferase-expressing pseudovirus encoding SARS-CoV-2 Omicron S/HIV infected in human 293T/ACE2 cells assessed as reduction of viral growth at 10 uM measured after 48 hrs by luciferase assay relative to control. Type of data set: functional, Severe acute respiratory syndrome coronavirus 2. Also on record: scale not given: the % may be the effect or the level left.

Data set [7] deals with Spike glycoprotein/Angiotensin-converting enzyme 2 (Severe acute respiratory syndrome coronavirus 2) (UniProt Q9BYF1+P0DTC2). Briefly: Inhibition of SARS-COV-2 S1 protein/human ACE2 receptor interaction at 20 uM by co-immunoprecipitation assay.
Data set [8] relates to SARS-CoV-2. The data set is described as follows: Antiviral activity against SARS-COV-2 Omicron expressing S protein and co-expressing EGFP infected in African green monkey Vero E6 cells assessed as inhibition of S protein mediated membrane fusion at 10 uM incubated of 30 mins measured after 24 hrs by inverted fluorescence microscopic analysis. Type of data set: functional, organism-based. As to conditions: Severe acute respiratory syndrome coronavirus 2, time 24.5 hrs.

The nature of data set [9]: Stability of compound in rat plasma assessed as change in retention time of parent compound incubated for 180 mins by LC-MS/MS analysis. It is filed as ADME, cell-free. As to conditions: 3 h.
The nature of data set [10]: Metabolic stability in rat liver microsomes assessed as half life measured upto 250 mins by LC-MS/MS analysis. Type of data set: ADME, Microsome. As to conditions: 4.167 h.
Data set [11] can be described thus: Metabolic stability in rat liver microsomes assessed as intrinsic clearance measured upto 250 mins by LC-MS/MS analysis. It is filed as ADME, Microsome. As to conditions: 4.167 h.
The test system of data set [12] is Severe acute respiratory syndrome coronavirus 2. The data set is described as follows: Inhibition of 6-helical bundle formation in SARS-CoV-2 Spike protein HR1/HR2 domains in presence of HR-1P and HR2P at 20 uM incubated for 30 mins by circular dichroism spectroscopy assay.

As for `C=C(C)[C@@H]1CC[C@]2(C(=O)Nc3ccc4ccccc4c3)CC[C@]3(C)[C@H](CC[C@@H]4[C@@]5(C)CC[C@H](O[C@@H]6O[C@H](CO)[C@@H](O[C@@H]7O[C@@H](C)[C@H](O)[C@@H](O)[C@H]7O)[C@H](O)[C@H]6O[C@@H]6O[C@@H](C)[C@H](O)[C@@H](O)[C@H]6O)C(C)(C)[C@@H]5CC[C@]43C)[C@@H]12`, the EC50 in the data set on SARS-CoV-2 [1] stood at 0.82 µM. The CC50 in [2] was 60.3 µM. Also, the selectivity ratio in data set [3] is 73.6. The Activity entry with SARS-CoV-2 [4] is “Dose-Dependent Effect”; in the data set on SARS-CoV-2 [6], 90%. In addition, the outcome in the data set with SARS-CoV-2 [5] was inactive. Moreover, the Kd at Spike glycoprotein was 3.26 µM. Moreover, the inhibition result in data set [7] and in data set [12] was “inactive” in each case. Further, in the data set with SARS-CoV-2 [8], the outcome was Active. The Stability entry in [9] was “Stable”. Moreover, the t1/2 in data set [10] turned out to be 2.8202 h. The CLH in data set [11] stood at 1.15 µL/min/mg.

Consider `C=C(C)[C@@H]1CC[C@]2(C(=O)NCc3ccc4ccccc4c3)CC[C@]3(C)[C@H](CC[C@@H]4[C@@]5(C)CC[C@H](O[C@@H]6O[C@H](CO)[C@@H](O[C@@H]7O[C@@H](C)[C@H](O)[C@@H](O)[C@H]7O)[C@H](O)[C@H]6O[C@@H]6O[C@@H](C)[C@H](O)[C@@H](O)[C@H]6O)C(C)(C)[C@@H]5CC[C@]43C)[C@@H]12`, for which the EC50 in the data set on SARS-CoV-2 [1] is 2.67 µM. The CC50 in [2] came to 167 µM. Also, the selectivity ratio in data set [3] is 62.7. Moreover, in [7], the inhibition result is “inactive”.

As for `C=C(C)[C@@H]1CC[C@]2(C(=O)NOc3ccccc3)CC[C@]3(C)[C@H](CC[C@@H]4[C@@]5(C)CC[C@H](O[C@@H]6O[C@H](CO)[C@@H](O[C@@H]7O[C@@H](C)[C@H](O)[C@@H](O)[C@H]7O)[C@H](O)[C@H]6O[C@@H]6O[C@@H](C)[C@H](O)[C@@H](O)[C@H]6O)C(C)(C)[C@@H]5CC[C@]43C)[C@@H]12`, the EC50 with SARS-CoV-2 [1] came to 9.88 µM. The half-maximal cytotoxic concentration (CC50) in data set [2] was 116 µM. Also, the selectivity ratio in data set [3] was determined as 11.7.

Consider `C=C(C)[C@@H]1CC[C@]2(C(=O)Nc3ccccc3OC)CC[C@]3(C)[C@H](CC[C@@H]4[C@@]5(C)CC[C@H](O[C@@H]6O[C@H](CO)[C@@H](O[C@@H]7O[C@@H](C)[C@H](O)[C@@H](O)[C@H]7O)[C@H](O)[C@H]6O[C@@H]6O[C@@H](C)[C@H](O)[C@@H](O)[C@H]6O)C(C)(C)[C@@H]5CC[C@]43C)[C@@H]12`, for which the EC50 with SARS-CoV-2 [1] is 6.11 µM. The CC50 in [2] was found to be 83.2 µM. The selectivity ratio in [3] was 13.6.

Turning to `C=C(C)[C@@H]1CC[C@]2(C(=O)Nc3ccccc3Cl)CC[C@]3(C)[C@H](CC[C@@H]4[C@@]5(C)CC[C@H](O[C@@H]6O[C@H](CO)[C@@H](O[C@@H]7O[C@@H](C)[C@H](O)[C@@H](O)[C@H]7O)[C@H](O)[C@H]6O[C@@H]6O[C@@H](C)[C@H](O)[C@@H](O)[C@H]6O)C(C)(C)[C@@H]5CC[C@]43C)[C@@H]12`, the 50% effective concentration (EC50) with SARS-CoV-2 [1] was 5.41 µM. Also, the CC50 in [2] was 47.1 µM. Besides, the selectivity ratio in data set [3] came to 8.7.

Regarding `C=C(C)[C@@H]1CC[C@]2(C(=O)NCc3ccccc3)CC[C@]3(C)[C@H](CC[C@@H]4[C@@]5(C)CC[C@H](O[C@@H]6O[C@H](CO)[C@@H](O[C@@H]7O[C@@H](C)[C@H](O)[C@@H](O)[C@H]7O)[C@H](O)[C@H]6O[C@@H]6O[C@@H](C)[C@H](O)[C@@H](O)[C@H]6O)C(C)(C)[C@@H]5CC[C@]43C)[C@@H]12`, the EC50 in the data set on SARS-CoV-2 [1] stood at 5.52 µM. Also, the CC50 in data set [2] is 248 µM. The selectivity ratio in data set [3] turned out to be 44.9.

For the compound `C=C(C)[C@@H]1CC[C@]2(C(=O)Nc3ccccc3)CC[C@]3(C)[C@H](CC[C@@H]4[C@@]5(C)CC[C@H](O[C@@H]6O[C@H](CO)[C@@H](O[C@@H]7O[C@@H](C)[C@H](O)[C@@H](O)[C@H]7O)[C@H](O)[C@H]6O[C@@H]6O[C@@H](C)[C@H](O)[C@@H](O)[C@H]6O)C(C)(C)[C@@H]5CC[C@]43C)[C@@H]12`, in the data set on SARS-CoV-2 [1], the EC50 is 12.5 µM. In addition, the CC50 in data set [2] was > 200 µM. The selectivity ratio in data set [3] is > 16. Also, the inhibition result in data set [7] is “inactive”.

Take `C=C(C)[C@@H]1CC[C@]2(C(=O)N(C)c3ccccc3)CC[C@]3(C)[C@H](CC[C@@H]4[C@@]5(C)CC[C@H](O[C@@H]6O[C@H](CO)[C@@H](O[C@@H]7O[C@@H](C)[C@H](O)[C@@H](O)[C@H]7O)[C@H](O)[C@H]6O[C@@H]6O[C@@H](C)[C@H](O)[C@@H](O)[C@H]6O)C(C)(C)[C@@H]5CC[C@]43C)[C@@H]12`: the EC50 in the data set with SARS-CoV-2 [1] came to 5.06 µM. In addition, the cytotoxic concentration (CC50) in data set [2] is 69.5 µM. Moreover, in data set [3], the selectivity ratio came to 13.7.

Consider `C=C(C)[C@@H]1CC[C@]2(C(=O)Nc3ccc4ncccc4c3)CC[C@]3(C)[C@H](CC[C@@H]4[C@@]5(C)CC[C@H](O[C@@H]6O[C@H](CO)[C@@H](O[C@@H]7O[C@@H](C)[C@H](O)[C@@H](O)[C@H]7O)[C@H](O)[C@H]6O[C@@H]6O[C@@H](C)[C@H](O)[C@@H](O)[C@H]6O)C(C)(C)[C@@H]5CC[C@]43C)[C@@H]12`, for which the EC50 in the data set on SARS-CoV-2 [1] was 8.43 µM. For the same compound, in data set [2], the CC50 came to 69.6 µM. Besides, the selectivity ratio in data set [3] stood at 8.25.

In the case of `C=C(C)[C@@H]1CC[C@]2(C(=O)Nc3cccc(OC)c3)CC[C@]3(C)[C@H](CC[C@@H]4[C@@]5(C)CC[C@H](O[C@@H]6O[C@H](CO)[C@@H](O[C@@H]7O[C@@H](C)[C@H](O)[C@@H](O)[C@H]7O)[C@H](O)[C@H]6O[C@@H]6O[C@@H](C)[C@H](O)[C@@H](O)[C@H]6O)C(C)(C)[C@@H]5CC[C@]43C)[C@@H]12`, the EC50 in the data set on SARS-CoV-2 [1] turned out to be 2.73 µM. For the same compound, the CC50 in data set [2] came to 73.3 µM. Moreover, the selectivity ratio in data set [3] worked out at 26.9.
